Assay results published in patent US11377423B2, “Inhibitors of histone deacetylase” (The Broad Institute, Inc., priority 2012, dated 2022).
pIC50, pKi: −log10 of the molar value. Values joined by “and” are separate entries in the source; they are usually repeats but may differ in a detail not shown here. Equal values may be shown once. “Also recorded” adds a separate entry of the source. Read-outs that look alike come from different tables or passages of the source.

Assays:
INS-1E cells = assay: Cytokine-induced beta-cell apoptosis, caspase-3 activity assay; format: cell-based, rat
Experimental: Compounds of the invention were evaluated for their ability to suppress cytokine-induced beta-cell apoptosis and palmitate and/or glucose-induced beta-cell apoptosis by inhibition of HDAC3. Assay protocols were as follows: Cell culture and reagents. […] Recombinant IL-1β, IFN-γ, and TNF-α were purchased from R&D Systems. Palmitate, D-glucose and fatty acids-free low endotoxin BSA were purchased from Sigma. Palmitate was solubilized in 90% ethanol, heated to 60° C. and used 1:100 dilution in media. Caspase-Glo 3/7 was from Promega and 3-(4,5-dimethylthiazol-2-yl)-2,5-diphenyltetrazolium bromide (MTT) was from Calbiochem. Antibodies for HDAC1, HDAC2, HDAC3, pJNK, JNK cleaved caspase-9 and secondary horseradish-peroxidase conjugated goat anti-mouse and anti-rabbit antibodies were from Cell Signaling. Antibody for beta-actin was from Sigma and antibody against CHOP (GADD153) from Abcam. HDAC inhibitors were purchased from Selleck Chemicals or synthesized in-house. Primers were from Integrated DNA Technologies, High Capacity cDNA RT kit and SYBR green master mix were purchased from Applied Biosystems. INS-1E cells were seeded at 5,000 cells/well using a Multidrop Combi (Thermo Labsystems) in white optical 384-well plates (Corning Life Sciences). After overnight incubation, medium was removed and 50 μL RPMI containing the treated compound, 1% FBS and either a combination of cytokines (10 ng/mL IL-1β, 50 ng/mL IFN-γ, 25 ng/mL TNF-α) or 0.5 mM sodium palmitate was added to every well. After two-day treatment, medium was removed and 20 μL Caspase-Glo 3/7 reagent was added. Luminescence was measured after a two-hour incubation using an Envision plate reader (PerkinElmer). […] The rat INS-1E cell line was simultaneously treated for 48 hours with a combination of pro-inflammatory cytokines IL-1β, IFN-γ, and TNF-α, and the indicated test compounds. […] Compound 9, a negative control, had no effect. […] FIGS. 9C and 9D show a dose-response analysis of HDAC inhibition in suppression of cytokine-induced beta-cell apoptosis. […] This could translate to a larger therapeutic window. […]

HDAC2 = HDAC2 (Homo sapiens (Human), UniProt Q92769); assay: Caliper HDAC enzymatic endpoint assay, HDAC2; format: biochemical
[1] = tested on: human megakaryocyte progenitors; assay: Growth of human megakaryocyte progenitors (surrogate assay for platelet depletion); format: cell-based; conditions: 0.1, 1, 10 and 20 μM, relative to DMSO treated cells
Experimental: Compounds of the invention were evaluated for their effect on the growth of human megakaryocyte progenitors (surrogate assay for platelet depletion). Human CD34+ cells were grown in a collagen-based gel (Megacult-C, Stemcell Technologies). […] 100% indicates no difference in cell viability relative to the DMSO treated cells. […] This is the desired effect.

[2] = Brain and plasma concentration in mice; format: in vivo; conditions: for half-life: mouse, other: injected (site of injection not given)
Experimental: Specifically, mice were injected with a single dose of compound and the concentration of compound was measured in the brain and plasma of mice at 8 time points. The samples were analyzed by LC-MS/MS.

HDAC1 [3] = molecular target: T1, HDAC1 (Homo sapiens (Human), UniProt Q13547); assay: Kinetics of the inhibition of HDAC1; conditions: for T1/2: HDAC1 residence
HDAC1 [4] = molecular target: T1, HDAC1; assay: Caliper HDAC enzymatic endpoint assay, HDAC1; format: biochemical
HDAC8 = HDAC8 (Homo sapiens (Human), UniProt Q9BY41); assay: Caliper HDAC enzymatic endpoint assay, HDAC8; format: biochemical; conditions: Table 2C; read-out: HDAC8 IC50 after 0 hr preincubation
HDAC3 [5] = molecular target: T2, HDAC3 (Homo sapiens (Human), UniProt O15379); assay: Caliper HDAC enzymatic endpoint assay, HDAC3; format: biochemical
HDAC5 = HDAC5 (Homo sapiens (Human), UniProt Q9UQL6); assay: Caliper HDAC enzymatic endpoint assay, HDAC5; format: biochemical; conditions: Table 2C; read-out: HDAC5 IC50 after 0 hr preincubation
HDAC3 [6] = molecular target: T2, HDAC3; assay: Kinetics of the inhibition of HDAC3
[7] = tested on: HDACs 1, 2, 3, 4, 5, 6, 7, 8, and 9; assay: HDAC selectivity panel (Caliper), isoform selectivity; conditions: from IC50 values
[8] = mice, single dose, Repligen 136 30 mg/kg, Compound 1 10 mg/kg

T1 sequence (Q13547 whole entry): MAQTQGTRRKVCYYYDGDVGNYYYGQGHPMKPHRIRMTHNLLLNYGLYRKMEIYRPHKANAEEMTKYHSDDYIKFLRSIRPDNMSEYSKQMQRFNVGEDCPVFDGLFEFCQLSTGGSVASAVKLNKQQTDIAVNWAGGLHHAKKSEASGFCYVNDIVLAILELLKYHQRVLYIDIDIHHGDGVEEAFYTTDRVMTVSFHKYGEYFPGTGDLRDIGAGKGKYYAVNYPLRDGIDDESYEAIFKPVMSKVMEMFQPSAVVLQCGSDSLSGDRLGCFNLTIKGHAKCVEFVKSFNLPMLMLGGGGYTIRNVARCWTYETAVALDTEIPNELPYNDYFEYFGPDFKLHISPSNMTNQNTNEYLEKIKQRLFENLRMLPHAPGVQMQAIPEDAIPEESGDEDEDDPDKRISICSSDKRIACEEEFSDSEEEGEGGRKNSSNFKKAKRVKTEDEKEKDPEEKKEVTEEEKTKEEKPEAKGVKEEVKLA
T2 sequence (O15379 whole entry): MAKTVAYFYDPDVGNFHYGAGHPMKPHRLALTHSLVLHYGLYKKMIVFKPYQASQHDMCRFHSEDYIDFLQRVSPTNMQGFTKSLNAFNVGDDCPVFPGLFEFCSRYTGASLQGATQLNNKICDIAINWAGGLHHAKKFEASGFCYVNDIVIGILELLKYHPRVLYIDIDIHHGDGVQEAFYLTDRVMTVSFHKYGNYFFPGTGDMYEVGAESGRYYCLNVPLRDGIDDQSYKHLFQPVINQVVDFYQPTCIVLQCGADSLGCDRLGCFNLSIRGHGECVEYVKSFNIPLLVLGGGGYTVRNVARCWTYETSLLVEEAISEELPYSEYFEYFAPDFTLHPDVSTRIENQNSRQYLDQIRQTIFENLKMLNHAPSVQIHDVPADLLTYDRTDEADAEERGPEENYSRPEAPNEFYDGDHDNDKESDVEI
T2 sequence (Q9Y618 395-489 partner): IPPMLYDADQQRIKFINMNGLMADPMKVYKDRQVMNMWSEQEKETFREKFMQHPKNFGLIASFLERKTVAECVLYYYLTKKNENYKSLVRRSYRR
HDAC2, sequence (Q92769 whole entry): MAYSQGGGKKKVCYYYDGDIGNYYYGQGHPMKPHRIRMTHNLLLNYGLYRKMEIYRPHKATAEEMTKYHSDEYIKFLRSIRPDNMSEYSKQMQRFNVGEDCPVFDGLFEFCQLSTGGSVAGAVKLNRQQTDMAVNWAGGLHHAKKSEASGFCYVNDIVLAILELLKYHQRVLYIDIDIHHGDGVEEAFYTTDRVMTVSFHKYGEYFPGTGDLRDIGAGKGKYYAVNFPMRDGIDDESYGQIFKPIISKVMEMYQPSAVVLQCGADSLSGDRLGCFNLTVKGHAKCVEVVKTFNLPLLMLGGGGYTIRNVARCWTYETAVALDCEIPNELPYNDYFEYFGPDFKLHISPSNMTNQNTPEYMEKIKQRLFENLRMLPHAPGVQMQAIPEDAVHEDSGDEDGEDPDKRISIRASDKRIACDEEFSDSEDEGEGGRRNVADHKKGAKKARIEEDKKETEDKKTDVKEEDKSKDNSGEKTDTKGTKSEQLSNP
HDAC5, sequence (Q9UQL6 whole entry): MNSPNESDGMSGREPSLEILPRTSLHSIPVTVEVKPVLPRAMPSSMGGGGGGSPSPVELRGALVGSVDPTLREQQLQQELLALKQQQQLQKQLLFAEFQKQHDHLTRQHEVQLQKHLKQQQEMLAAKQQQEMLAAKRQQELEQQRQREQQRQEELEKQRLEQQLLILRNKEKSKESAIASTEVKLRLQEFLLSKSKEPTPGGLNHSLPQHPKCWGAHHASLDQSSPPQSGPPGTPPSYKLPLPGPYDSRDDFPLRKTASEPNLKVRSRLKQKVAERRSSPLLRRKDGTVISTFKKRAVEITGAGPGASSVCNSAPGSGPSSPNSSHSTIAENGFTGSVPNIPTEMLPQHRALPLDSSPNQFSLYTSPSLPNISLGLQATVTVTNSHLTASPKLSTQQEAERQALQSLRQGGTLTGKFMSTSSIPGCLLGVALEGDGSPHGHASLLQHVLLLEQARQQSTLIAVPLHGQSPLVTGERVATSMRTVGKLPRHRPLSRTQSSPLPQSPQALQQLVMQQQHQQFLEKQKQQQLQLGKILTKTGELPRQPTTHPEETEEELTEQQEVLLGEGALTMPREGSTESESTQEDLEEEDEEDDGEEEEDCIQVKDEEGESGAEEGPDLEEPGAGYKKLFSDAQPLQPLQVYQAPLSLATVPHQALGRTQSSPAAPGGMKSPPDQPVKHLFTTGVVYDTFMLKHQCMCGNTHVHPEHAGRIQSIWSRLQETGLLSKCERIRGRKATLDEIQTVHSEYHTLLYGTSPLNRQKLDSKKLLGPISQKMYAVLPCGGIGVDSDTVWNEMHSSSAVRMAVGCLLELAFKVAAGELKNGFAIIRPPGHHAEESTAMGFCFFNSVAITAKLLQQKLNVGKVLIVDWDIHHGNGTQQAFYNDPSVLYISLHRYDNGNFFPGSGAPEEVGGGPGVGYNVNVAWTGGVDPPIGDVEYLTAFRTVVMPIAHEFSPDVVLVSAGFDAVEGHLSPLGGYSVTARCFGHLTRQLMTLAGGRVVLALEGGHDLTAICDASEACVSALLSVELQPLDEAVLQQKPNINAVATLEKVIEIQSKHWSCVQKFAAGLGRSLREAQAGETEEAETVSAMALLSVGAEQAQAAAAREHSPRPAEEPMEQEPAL
HDAC8, sequence (Q9BY41 whole entry): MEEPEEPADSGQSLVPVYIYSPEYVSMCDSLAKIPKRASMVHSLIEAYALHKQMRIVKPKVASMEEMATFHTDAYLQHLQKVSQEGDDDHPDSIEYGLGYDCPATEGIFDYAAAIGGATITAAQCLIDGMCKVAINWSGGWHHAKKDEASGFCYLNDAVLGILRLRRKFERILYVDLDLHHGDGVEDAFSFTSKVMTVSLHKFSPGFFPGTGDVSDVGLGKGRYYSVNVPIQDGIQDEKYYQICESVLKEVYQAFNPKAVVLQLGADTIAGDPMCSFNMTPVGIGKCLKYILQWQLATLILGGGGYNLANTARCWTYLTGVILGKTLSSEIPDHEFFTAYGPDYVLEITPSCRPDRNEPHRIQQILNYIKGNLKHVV

pIC50 (HDAC2; read-out: HDAC2 IC50 3 h Prein, Table 2, 3 h preincubation): 5.85
pIC50 (HDAC2; read-out: HDAC2 IC50 3 h Preinc, Table 2A, 3 h preincubation): 5.85
pIC50 (HDAC2; read-out: HDAC2 IC50 @3 hr, 3 hr preincubation): 5.85
better brain exposure in comparison to Repligen 136 as measured by Cmax ([2]; dose normalized): 30 times
better brain exposure in comparison to Repligen 136 measured by AUC ([2]; dose normalized): 120 times
AUC Brain [2, 8]: 12.77 µM·h
Cmax Brain [2, 8]: 3.80 µM
concentration in the brain over time [2, 8]: still present in the brain after 8 hours
half-life ([2]; brain, read-out: T1/2 Brain (converted)): 2.06 h
half-life ([2]; plasma, read-out: T1/2 Plasma (converted)): 2.26 h
better plasma exposure as measured by AUC than Repligen 136 ([2]; plasma): 30 times
koff (HDAC1 [3]): ~0.0045 s⁻¹
Kon (HDAC1 [3]; HDAC1): ~0.020 min^−1, uM^−1
koff (HDAC1 [3]; HDAC1): ~0.0045 s⁻¹
type of binding to HDAC1 (words) (HDAC1 [3]; HDAC1): fast off inhibitor
type of binding to HDAC1 (words) (HDAC1 [3]; HDAC1, listed as compound 1): slow on/fast off rates
T1/2 (HDAC1 [3]): ~2.5 min
T1/2 (HDAC1 [3]; listed as compound 1): 2.5 min
pKi (HDAC1 [3]; Ki, HDAC1, inhibition kinetics): ~4.85 and 4.85
pIC50 (HDAC1 [4]; read-out: HDAC1 IC50 3 h Prein, Table 2, 3 h preincubation): 5.90
pIC50 (HDAC1 [4]; read-out: HDAC1 IC50 3 h Preinc, Table 2A, 3 h preincubation): 5.90
pIC50 (HDAC1 [4]; read-out: HDAC1 IC50 @3 hr, 3 hr preincubation): 5.90
pIC50 (HDAC8): < 4.48
more potent inhibitor of HDAC3 than compounds 3 and 4 (HDAC3 [5]; IC50, 3 h preincubation): 5-10 times
pIC50 (HDAC3 [5]; read-out: HDAC3 IC50 3 h Prein, Table 2, 3 h preincubation): 7.17
pIC50 (HDAC3 [5]; read-out: HDAC3 IC50 3 h Preinc, Table 2A, 3 h preincubation): 7.17
pIC50 (HDAC3 [5]; read-out: HDAC3 IC50 @3 hr, 3 hr preincubation): 7.17
pIC50 (HDAC5): < 4.48
koff (HDAC3 [6]): 0.000147 s⁻¹
pKi (HDAC3 [6]; HDAC3): 7.54
Kon (HDAC3 [6]; HDAC3): 0.30 min^−1, uM^−1 and 0.3 min^−1, uM^−1
koff (HDAC3 [6]; HDAC3): 0.000147 s⁻¹
type of binding to HDAC3 (words) (HDAC3 [6]; HDAC3): slow, tight-binding inhibitor
type of binding to HDAC3 (words) (HDAC3 [6]; HDAC3, listed as compound 1): fast on/slow off binding
T1/2 (HDAC3 [6]; HDAC3 residence): 1.32 h
binding selectivity (Ki) for HDAC3 versus HDAC1 (HDAC3 [6]; thermodynamic (Ki)): 175 fold
binding selectivity (Ki) for HDAC3 versus HDAC2 (HDAC3 [6]; thermodynamic (Ki)): 217 fold
Structure (SMILES): CC(=O)Nc1ccc(C(=O)Nc2ccc(F)cc2N)cc1 [Compound 1, 4-acetamido-N-(2-amino-4-fluorophenyl)benzamide]
suppression of cytokine-induced beta-cell apoptosis (caspase activity) (INS-1E cells; IL-1β, IFN-γ, TNF-α, 48 hours, 5 μM compound): as effective at suppressing cyctokine-induced beta-cell apoptosis as CI-994
suppression of caspase-3 activity, comparison of compounds (INS-1E cells; cytokines, 0.1-10 μM, dose dependent): more effective at suppressing caspase-3 activity
effect on growth and viability of human megakaryocyte progenitor cells [1]: does not significantly inhibit cell growth; also recorded: no significant effect on growth and viability
HDAC isoform selectivity [7]: HDAC3 selective compound
